In general, IC50 refers to the midpoint of a concentration-inhibition curve. A low value points to higher potency.

Structures are written as SMILES.

Chain of Neutrophil collagenase (P22894 whole entry): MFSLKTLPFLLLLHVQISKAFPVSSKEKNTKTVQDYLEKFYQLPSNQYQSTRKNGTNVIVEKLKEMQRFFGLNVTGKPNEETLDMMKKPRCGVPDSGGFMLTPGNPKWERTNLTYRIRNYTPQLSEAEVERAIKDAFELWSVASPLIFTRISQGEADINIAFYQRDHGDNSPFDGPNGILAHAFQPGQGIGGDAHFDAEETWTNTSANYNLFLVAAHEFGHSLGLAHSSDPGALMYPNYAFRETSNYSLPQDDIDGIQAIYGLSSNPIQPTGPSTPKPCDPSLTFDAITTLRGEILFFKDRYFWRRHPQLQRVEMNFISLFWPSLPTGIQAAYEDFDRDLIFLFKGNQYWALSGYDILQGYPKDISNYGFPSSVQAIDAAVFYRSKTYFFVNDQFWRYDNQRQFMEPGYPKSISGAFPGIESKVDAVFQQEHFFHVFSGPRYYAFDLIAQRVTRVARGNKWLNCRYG

This assay concerns the target Neutrophil collagenase (Homo sapiens, UniProt P22894). Kind of assay: Inhibition of human neutrophil collagenase [Matrix Metalloprotease-8, MMP-8].
`COc1ccc(S(=O)(=O)N2Cc3cc(NC(=O)[C@H](CC(=O)OC(C)(C)C)NC(=O)OCc4ccccc4)ccc3C[C@H]2C(=O)NO)cc1`: the IC50 came to 10 nM.

Compound `CNC(=O)c1ccc(Oc2ccc(S(=O)(=O)N3Cc4ccccc4C[C@@H]3C(=O)C(=O)O)cc2)cc1` registered a half-maximal inhibitory concentration (IC50) of 40 nM.

`O=C(NO)[C@H]1Cc2ccccc2CN1S(=O)(=O)Cc1ccccc1` returned a half-inhibitory concentration (IC50) of 3000 nM.

As to `COc1ccc(S(=O)(=O)N2Cc3ccccc3C[C@H]2C(=O)NO)cc1`, the half-inhibitory concentration (IC50) worked out at 1000 nM.

For `O=C(O)C(=O)[C@H]1Cc2ccccc2CN1S(=O)(=O)c1ccc(-c2ccon2)s1`, half-maximal inhibition (IC50) required 600 nM.

The compound `COc1ccc(S(=O)(=O)N2Cc3ncn(C)c3C[C@@H]2C(=O)O)cc1` had a half-maximal inhibitory concentration (IC50) of 10000 nM.

The compound `O=C(NO)[C@H]1Cc2ccccc2CN1S(=O)(=O)c1ccc(C(F)(F)F)cc1` yielded a half-maximal inhibitory concentration (IC50) of 50 nM.

`O=C(NO)[C@H]1Cc2ccccc2CN1S(=O)(=O)c1ccc(-c2ccccc2)cc1` had an IC50 of 2 nM.

On to `COc1ccc(S(=O)(=O)N2Cc3cc(O)ccc3C[C@@H]2C(=O)NO)cc1`, for which half-maximal inhibition (IC50) was put at 1 nM.

With `O=C(O)C(=O)[C@H]1Cc2ccccc2CN1S(=O)(=O)c1ccc(-c2ccc(Cl)cc2)cc1`, half-maximal inhibition (IC50) was put at 5 nM.

Compound `CC(C)(C)OC(=O)Nc1ccc2c(c1)CN(S(=O)(=O)c1ccc(-c3ccc(F)cc3)cc1)[C@@H](C(=O)NO)C2` showed an IC50 of 10 nM.

As for `O=C(NO)[C@H]1Cc2ccccc2CN1S(=O)(=O)c1ccc(-c2ccon2)s1`, it took 8 nM to reach half-maximal inhibition (IC50).

`CSc1nccc(-c2ccc(S(=O)(=O)N3Cc4ccccc4C[C@@H]3C(=O)C(=O)O)s2)n1` had a half-maximal inhibitory concentration (IC50) of 1000 nM.

Compound `CCOC(=O)Nc1ccc(S(=O)(=O)N2Cc3ccccc3C[C@@H]2C(=O)NO)cc1` had an IC50 of 30 nM.

The compound `O=C(O)C(=O)[C@H]1Cc2ccccc2CN1S(=O)(=O)c1ccc(-c2nc3ccccc3o2)cc1` showed a concentration for half-maximal inhibition (IC50) of 80 nM.

The compound `O=C(NO)[C@H]1Cc2ccccc2CN1S(=O)(=O)c1ccc(-c2ccc(Cl)cc2)cc1` registered an IC50 of 3 nM.

Regarding `CN(C)c1ccc(Oc2ccc(S(=O)(=O)N3Cc4ccccc4C[C@@H]3C(=O)C(=O)O)cc2)cc1`, the IC50 worked out at 30 nM.

Take `CN(C)c1ccc(-c2ccc(S(=O)(=O)N3Cc4ccccc4C[C@@H]3C(=O)C(=O)O)cc2)cc1`: the midpoint of inhibition, the IC50, lay at 1 nM.

In turn, `O=C(NCc1csc(S(=O)(=O)N2Cc3ccccc3C[C@@H]2C(=O)NO)c1)c1ccccc1` registered a concentration for half-maximal inhibition (IC50) of 800 nM.

`O=C(O)C(=O)[C@H]1Cc2ccc([N+](=O)[O-])cc2CN1S(=O)(=O)c1ccc(-c2ccc(F)cc2)cc1` gave an IC50 of 40 nM.

`COc1ccc(OC(=O)Nc2cccc(S(=O)(=O)N3Cc4ccccc4C[C@@H]3C(=O)NO)c2)cc1` returned a concentration for half-maximal inhibition (IC50) of 200 nM.

In turn, `O=C(NO)[C@H]1Cc2ccccc2CN1S(=O)(=O)CCc1ccncc1` displayed an IC50 of 30 nM.

`O=C(O)C(=O)[C@H]1Cc2ccccc2CN1S(=O)(=O)CCc1ccc(-c2ccccc2)cc1` returned a concentration for half-maximal inhibition (IC50) of 20 nM.

Compound `N#Cc1ccc(Oc2ccc(S(=O)(=O)N3Cc4ccccc4C[C@@H]3C(=O)C(=O)O)cc2)cc1` had an IC50 of 10 nM.

Consider `COc1ccc(S(=O)(=O)N2Cc3cc(NC(=O)[C@H](C)NC(=O)OC(C)(C)C)ccc3C[C@H]2C(=O)NO)cc1`, for which the IC50 was determined as 2 nM.

Compound `CC(C)(C)OC(=O)Nc1ccc2c(c1)C[C@H](C(=O)C(=O)O)N(S(=O)(=O)c1ccc(-c3ccc(F)cc3)cc1)C2` yielded a concentration for half-maximal inhibition (IC50) of 30 nM.

`COc1ccc(S(=O)(=O)N2Cc3cc([N+](=O)[O-])ccc3C[C@@H]2C(=O)NO)cc1` registered an IC50 of 8 nM.

The compound `CC(=O)Nc1ccc(S(=O)(=O)N2Cc3ccccc3C[C@@H]2C(=O)NO)cc1` came in with an IC50 of 100 nM.

Regarding `O=C(O)C(=O)[C@H]1Cc2ccccc2CN1S(=O)(=O)c1ccc(/C=C/c2ccccc2)cc1`, the IC50 was found to be 60 nM.

The compound `O=C(O)C(=O)[C@H]1Cc2ccccc2CN1S(=O)(=O)c1ccc(-n2nccn2)cc1` came in with an IC50 of 90 nM.

As to `O=C(O)C(=O)[C@H]1Cc2cc([N+](=O)[O-])ccc2CN1S(=O)(=O)c1ccc(-c2ccc(Cl)cc2)cc1`, the IC50 worked out at 20 nM.

The compound `O=C(NO)[C@H]1Cc2ccccc2CN1S(=O)(=O)c1ccc2ccccc2c1` came in with an IC50 of 70 nM.

Compound `CSc1nccc(-c2ccc(S(=O)(=O)N3Cc4ccccc4C[C@@H]3C(=O)NO)s2)n1` displayed an IC50 of 20 nM.

The compound `O=C(O)C(=O)[C@H]1Cc2ccccc2CN1S(=O)(=O)c1ccc2oc3ccccc3c2c1` returned a 50% inhibitory concentration (IC50) of 500 nM.

In turn, `Nc1ccc2c(c1)CN(S(=O)(=O)c1ccc(-c3ccc(F)cc3)cc1)[C@@H](C(=O)NO)C2` had a half-inhibitory concentration (IC50) of 2 nM.

Take `O=C(NO)[C@H]1Cc2ccccc2CN1S(=O)(=O)Cc1ccc(-c2ccccn2)s1`: 2 nM corresponded to half-maximal inhibition (IC50).

In turn, `COc1ccc(S(=O)(=O)N2Cc3cc(NC(=O)CCC(=O)O)ccc3C[C@@H]2C(=O)NO)cc1` returned an IC50 of 40 nM.

`COc1ccc(S(=O)(=O)N2Cc3cc(NC(=O)[C@H](C)N)ccc3C[C@H]2C(=O)C(=O)O)cc1` gave an IC50 of 2000 nM.

For `O=C(Nc1cccc(S(=O)(=O)N2Cc3ccccc3C[C@@H]2C(=O)NO)c1)c1ccccc1O`, it took 200 nM to reach half-maximal inhibition (IC50).

For the compound `COC(=O)c1csc(S(=O)(=O)N2Cc3ccccc3C[C@@H]2C(=O)NO)c1OC`, it took 80 nM to reach half-maximal inhibition (IC50).

`CCCCOc1ccc(S(=O)(=O)N2Cc3ccccc3C[C@@H]2C(=O)NO)cc1`: inhibition was half-maximal at 2 nM (IC50).

Compound `O=C(NO)[C@H]1Cc2ccccc2CN1S(=O)(=O)c1ccc2[nH]c(-c3ccccc3)nc2c1` registered a half-inhibitory concentration (IC50) of 40 nM.

Compound `CCCCCCCCCCCCCCCCS(=O)(=O)N1Cc2ccccc2C[C@@H]1C(=O)NO` displayed an IC50 of 3000 nM.

`COc1ccc(S(=O)(=O)N2Cc3ncn(C)c3C[C@@H]2C(=O)NO)cc1` gave an IC50 of 3 nM.

In turn, `Nc1ccc2c(c1)CN(S(=O)(=O)c1ccc(-c3ccc(Cl)cc3)cc1)[C@@H](C(=O)C(=O)O)C2` showed an IC50 of 7 nM.

With `O=C(NO)[C@H]1Cc2ccccc2CN1S(=O)(=O)c1ccc(OCc2ccc(F)cc2)cc1`, half-maximal inhibition (IC50) was put at 2 nM.

Turning to `CN(C)c1ccc(-c2ccc(S(=O)(=O)N3Cc4ccccc4C[C@@H]3C(=O)NO)cc2)cc1`, the IC50 stood at 2 nM.

On to `O=C(NO)[C@H]1Cc2ccccc2CN1S(=O)(=O)c1cc(Br)c(Br)s1`, for which 500 nM corresponded to half-maximal inhibition (IC50).

On to `O=C(NO)[C@H]1Cc2ccccc2CN1S(=O)(=O)c1cc(S(=O)(=O)c2ccccc2)cs1`, for which the half-inhibitory concentration (IC50) was 2000 nM.

Compound `O=C(NO)[C@H]1Cc2ccccc2CN1S(=O)(=O)c1ccc(N2CCOCC2)cc1` gave an IC50 of 100 nM.

On to `COc1ccc(S(=O)(=O)N2Cc3cc(NC(=O)OC(C)(C)C)ccc3C[C@@H]2C(=O)NO)cc1`, for which the concentration for half-maximal inhibition (IC50) amounted to 3 nM.

The compound `COc1ccc(S(=O)(=O)N2Cc3ccccc3C[C@@H]2C(=O)NO)cc1` displayed a 50% inhibitory concentration (IC50) of 4 nM.

Regarding `COc1ccc(S(=O)(=O)N2Cc3cc(N)ccc3C[C@@H]2C(=O)C(=O)O)cc1`, the midpoint of inhibition, the IC50, lay at 2000 nM.

For the compound `O=C(O)C(=O)C1Cc2ccccc2CN1S(=O)(=O)c1ccc(-c2ccc(Cl)cc2)cc1` (single isomer, unassigned), 3000 nM corresponded to half-maximal inhibition (IC50).
